pKi: −log10 of the molar value.
Columns and labels:
Assay in all cases: Inhibition Assay
Conditions in all cases: pH 7; 20 °C
[1] = target: Bifunctional dihydrofolate reductase-thymidylate synthase (Leishmania major, UniProt P07382)
Experimental: (§1) The inhibition assay pattern for all of the compounds was determined by steady-state kinetic analysis of the dependence of the TS enzyme activity on folate concentration at various concentration.

Thymidylate synthase [2] = target: Thymidylate synthase (Escherichia coli (strain K12), UniProt P0A884)
Experimental: as §1

Thymidylate synthase [3] = target: Thymidylate synthase (Homo sapiens, UniProt P04818)
Experimental: as §1

Thymidylate synthase [4] = target: T1, Thymidylate synthase (Lacticaseibacillus casei, UniProt P00469)
T1 sequence (P00469 whole entry): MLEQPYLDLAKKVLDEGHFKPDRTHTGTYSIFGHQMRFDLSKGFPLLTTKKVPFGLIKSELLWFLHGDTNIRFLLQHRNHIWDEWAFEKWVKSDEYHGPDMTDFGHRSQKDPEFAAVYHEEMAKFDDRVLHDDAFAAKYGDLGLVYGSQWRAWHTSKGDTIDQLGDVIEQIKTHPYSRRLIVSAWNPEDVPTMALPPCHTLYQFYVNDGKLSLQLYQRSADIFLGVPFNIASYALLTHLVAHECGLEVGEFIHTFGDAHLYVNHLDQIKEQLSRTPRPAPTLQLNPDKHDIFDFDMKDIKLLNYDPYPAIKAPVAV
Experimental: as §1

Thymidylate synthase [5] = target: T2, Thymidylate synthase (Pneumocystis carinii, UniProt P13100)
T2 sequence (P13100 whole entry): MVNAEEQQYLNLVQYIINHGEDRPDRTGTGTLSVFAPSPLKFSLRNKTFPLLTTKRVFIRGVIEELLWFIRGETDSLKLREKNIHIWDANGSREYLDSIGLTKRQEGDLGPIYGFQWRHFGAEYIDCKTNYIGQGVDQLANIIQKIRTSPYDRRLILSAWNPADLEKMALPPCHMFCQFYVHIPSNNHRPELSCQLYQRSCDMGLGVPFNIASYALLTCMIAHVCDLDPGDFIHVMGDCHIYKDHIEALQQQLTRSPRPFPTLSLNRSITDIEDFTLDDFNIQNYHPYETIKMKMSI
Experimental: as §1

Chain of Bifunctional dihydrofolate reductase-thymidylate synthase (P07382 whole entry): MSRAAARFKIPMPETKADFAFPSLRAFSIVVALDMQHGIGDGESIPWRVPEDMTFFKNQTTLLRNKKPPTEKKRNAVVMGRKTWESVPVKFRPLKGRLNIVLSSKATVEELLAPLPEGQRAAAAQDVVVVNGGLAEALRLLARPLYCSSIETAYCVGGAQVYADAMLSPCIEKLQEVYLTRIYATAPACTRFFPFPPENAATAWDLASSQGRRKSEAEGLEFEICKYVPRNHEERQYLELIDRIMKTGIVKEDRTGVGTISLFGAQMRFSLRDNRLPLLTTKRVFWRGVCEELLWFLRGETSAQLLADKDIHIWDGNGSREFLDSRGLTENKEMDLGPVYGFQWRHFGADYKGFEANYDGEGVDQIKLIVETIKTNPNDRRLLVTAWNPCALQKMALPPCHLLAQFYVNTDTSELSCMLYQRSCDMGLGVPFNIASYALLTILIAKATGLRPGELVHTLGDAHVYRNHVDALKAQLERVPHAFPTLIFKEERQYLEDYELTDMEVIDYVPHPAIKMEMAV
Chain of Thymidylate synthase (Homo sapiens, UniProt P04818) (P04818 whole entry): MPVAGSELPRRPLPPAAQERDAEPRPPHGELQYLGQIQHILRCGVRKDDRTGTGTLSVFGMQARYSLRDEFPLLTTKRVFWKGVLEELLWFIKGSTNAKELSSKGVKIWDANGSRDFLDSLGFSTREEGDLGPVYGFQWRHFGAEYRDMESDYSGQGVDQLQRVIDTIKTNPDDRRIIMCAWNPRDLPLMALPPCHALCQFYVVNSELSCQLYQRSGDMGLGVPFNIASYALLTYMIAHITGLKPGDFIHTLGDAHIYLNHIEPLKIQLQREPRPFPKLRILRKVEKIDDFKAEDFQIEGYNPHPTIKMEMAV
Chain of Thymidylate synthase (Escherichia coli (strain K12), UniProt P0A884) (P0A884 whole entry): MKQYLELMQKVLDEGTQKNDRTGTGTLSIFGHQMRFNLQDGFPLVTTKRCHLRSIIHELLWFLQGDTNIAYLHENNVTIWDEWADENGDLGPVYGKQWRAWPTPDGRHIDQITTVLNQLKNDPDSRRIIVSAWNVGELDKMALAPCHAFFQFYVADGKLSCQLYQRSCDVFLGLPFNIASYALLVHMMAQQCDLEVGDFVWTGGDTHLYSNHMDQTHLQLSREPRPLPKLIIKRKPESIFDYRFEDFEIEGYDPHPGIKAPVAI

Row | pKi [1] | pKi (Thymidylate synthase [2]) | pKi (Thymidylate synthase [3]) | pKi (Thymidylate synthase [4]) | pKi (Thymidylate synthase [5]) | Structure (SMILES)
1 | < 2.97 | – | – | – | – | O=C1OC(c2ccc(O)c(Cl)c2)(c2ccc(O)c(Cl)c2)c2cccc3cccc1c23
2 | 7.10 | – | – | – | – | C#CCN(Cc1ccc2nc(N)[nH]c(=O)c2c1)c1ccc(C(=O)N[C@@H](CCC(=O)O)C(=O)O)cc1
3 | < 2.75 | – | – | – | – | O=C1OC(c2ccc(O)c(F)c2)(c2ccc(O)c(F)c2)c2cccc3cccc1c23 [Phenolnaphthalein derivative, 1]
4 | < 2.97 | 5.39 | < 3.61 | 6.10 | 4.55 | O=C1OC(c2ccc(O)c(Br)c2)(c2ccc(O)c(Br)c2)c2ccc(Cl)c3cccc1c23 [Phenolnaphthalein derivative, 2]
5 | < 2.97 | 5.96 | < 3.61 | 5.74 | 4.66 | O=C1OC(c2ccc(O)c(F)c2)(c2ccc(O)c(F)c2)c2ccc(Cl)c3cccc1c23 [Phenolnaphthalein derivative, 3]
6 | 4.20 | 6.05 | < 3.88 | – | < 3.88 | O=C1OC(c2ccc(O)c(Br)c2)(c2ccc(O)c(Br)c2)c2c1ccc1ccccc21 [Phenolnaphthalein derivative, 4]
7 | 4.39 | – | < 3.61 | – | 4.49 | O=C1OC(c2cc(Br)c(O)c(Br)c2)(c2cc(Br)c(O)c(Br)c2)c2c1ccc1ccccc21 [Phenolnaphthalein derivative, 5]

— BindingDB's records for doi:10.1016/j.chembiol.2003.11.012 (Universit&Agrave, 2003)
